EP0923548B1, “4-A[…] AS DOPAMIN D2 AGONISTS AND AS 5HT 1A LIGANDS” (Wyeth, priority 1996, dated 1998)

Biological target: T1, dopamine autoreceptor (Rattus norvegicus, UniProt P61169)
T1 construct: homogenized rat striatal brain tissue; from tissue; host or cells: rat striatal brain tissue homogenate
Assay: Dopamine autoreceptor affinity, 3H-quinpirole binding in homogenized rat striatal brain tissue
Conditions: for Ratio ant/agonist: ratio of D2 Spiper IC50 to D2 Quin. IC50 (LowAg/HighAg, predicts intrinsic activity)
Protocol: Affinity for the dopamine autoreceptor was established by a modification of the standard experimental test procedure of Seemen and Schaus, European Journal of Pharmacology 203, 105-109 (1991), wherein homogenized rat striatal brain tissue is incubated with ^3H-quinpirole (Quin.)and various concentrations of test compound, filtered and washed and counted in a Betaplate scintillation counter.

T1 sequence (P61169 whole entry): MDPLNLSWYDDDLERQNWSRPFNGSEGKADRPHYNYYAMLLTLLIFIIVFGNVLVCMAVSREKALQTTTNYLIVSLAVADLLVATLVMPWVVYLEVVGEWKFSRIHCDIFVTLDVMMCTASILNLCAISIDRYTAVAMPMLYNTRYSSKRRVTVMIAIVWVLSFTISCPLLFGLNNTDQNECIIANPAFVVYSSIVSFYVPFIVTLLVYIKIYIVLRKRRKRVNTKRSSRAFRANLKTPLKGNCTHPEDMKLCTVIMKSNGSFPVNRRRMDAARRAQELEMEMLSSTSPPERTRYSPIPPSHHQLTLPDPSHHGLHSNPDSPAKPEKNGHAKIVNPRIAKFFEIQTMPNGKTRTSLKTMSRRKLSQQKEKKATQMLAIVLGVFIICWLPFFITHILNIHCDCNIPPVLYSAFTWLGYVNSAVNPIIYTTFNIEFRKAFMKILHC

Row | SMILES | IC50 | Ratio ant/agonist
1 | c1ccc(CCCCNCCOc2cccc3[nH]ccc23)cc1 [(1a), [2-(1H-Indol-4-yloxy)-ethyl]-(4-phenyl-butyl)-amine] | 10.5 nM | 18
2 | Clc1ccc(OCCNCc2ccccc2)c2cc[nH]c12 [(1b), Benzyl-[2-(7-chloro-1H-indol-4-yloxy)-ethyl]-amine] | 14.9 nM | 12
3 | Clc1ccc(OCCNCc2ccccc2)c2c(Cl)c[nH]c12 [(1c), Benzyl-[2-(3,7-dichloro-1H-indol-4-yloxy)-ethyl]-amine] | 13.6 nM | 21
4 | Clc1ccc(OCCNCc2cccs2)c2c(Cl)c[nH]c12 [(1f), Thien-2-ylmethyl-[2-(3,7-dichloro-1H-indol-4-yloxy)-ethyl]-amine] | 22.5 nM | 18
5 | Clc1c[nH]c2cccc(OCCNCCCCc3ccccc3)c12 [(2a), [2-(3-Chloro-1H-indol-4-yloxy)-ethyl]-(4-phenyl-butyl)-amine] | 9.55 nM | 20
6 | O=C(c1c[nH]c2cccc(OCCNCc3ccccc3)c12)C(F)(F)F [(3a), 1-[4-(2-Benzylamino-ethoxy)-1H-indol-3-yl]-2,2,2-trifluoro-ethanone] | 5.93 nM | 48
7 | c1ccc(CNCCOc2cccc3[nH]ccc23)cc1 [(3b), N-Benzyl-[2-(1H-indol-4-yloxy)]-ethylamine] | 19.4 nM | 26
